From patent publication US6677431B2, “Design, preparation, and properties of antibacterial β-peptides” (The Trustees of the University of Pennsylvania, priority 1999, dated 2004)
Where two headings read alike, the source gives them in different places.

Columns and labels:
[1] = Peptide binding to phospholipid bilayers by CD, SOPS/SOPC (1:9) vesicles; conditions: single site binding fit, 42 (peptide 1) or 52 (peptide 2) lipids per peptide
Experimental: The binding affinity of peptides to phospholipid bilayers was measured using CD spectra of the peptide in the presence of varying lipid vesicle concentrations. Peptides show little structure from CD spectra in water. Upon addition of lipid vesicles, the ellipiticity at 214 nm increased as a consequence of helix formation due to interactions between the peptide and lipid surface. Small unilamellar vesicles (SUV) of SOPC/SOPS were prepared by sonicating lipid large vesicles in 10 mM phosphate buffer, pH 7. CD spectra were taken before and after the addition of aliquots of vesicle to 2 mL peptide solution in 10 mM phosphate buffer, pH 7.
The dissociation constant Kd was determined from equation (1) for single site binding:
[P](R−1)−c/n−Kd+c/(nR)=0 (1)
where [P] and c are peptide and lipid molar concentrations, respectively, n is the number of lipids per peptide binding site. R is the fraction of peptide bound, which can be calculated from equation (2): […]
To get better understanding of the binding mechanism of the peptides to lipid membranes, the dissociation constants (Kd) of peptide 1 and peptide 2 to small unilamellar lipid vesicles (SUV) were measured. Since binding to DPC micelle drives peptide 1 and peptide 2 from random coil conformation to helical conformation, the binding equilibrium can be monitored by CD spectroscopy. […]

micF-lux fusion = test: Stress-induced response assay, induction of micF-lux fusion; type: cell-based; conditions: for induction of micF-lux: Group II peptides; for micF gene fusion response: Table 4, regulatory gene Rob
Experimental: Stress-induced response and growth inhibition assays were carried out on samples of four of the β-peptide and compared to known polycationic peptides.
Polymyxin B was tested both rich, LB, medium and defined, M9, medium. The other natural peptides were tested in LB medium.
The β-peptides were tested in M9 medium. * In LB medium (data from Oh et al. Biochem. Biophys. Acta. 2000,1463: 43-54)
However, similar to the magainins, no induction of the micF-lux fusion was observed. Also, the minimum inhibitory concentrations (MIC's) were determined to be higher than those reported in the published manuscript.
Samples of these β-peptides 1 and 2 were evaluated in the stress-induced response assays.
The biolumenescence data result from test carried out according to U.S. Pat. No. 5,683,868, Highly Sensitive Method For Detecting Environmental Insults, issued Nov. 4, 1997 to LaRossa et al., the entire contents of the disclosure of are hereby incorporated by reference, The tests described in this patent permit antibacterial properties of peptides or any other materials to be assessed. […] Along these lines, FIG. 5 illustrates a relationship between relative light units and minutes of exposure of bacteria to the various materials in the legend. P×B represents polymyxin, a known antibacterial material. In the graph, a decrease in RULs corresponds to a decrease in bacteria. […]

K91 E. coli = type: cell-based
Experimental: The biological activities of these peptides were measured using human erythrocytes and E. coli as models for mammalian and bacterial cells, respectively. Hemolysis was monitored in 10 mM Tris, 150 mM NaCl, pH 7.0, while the bacterial assay was conducted in minimal media M9 (Table 1); both of these solutions are sufficiently transparent to allow CD and ultracentrifugation measurements (supplementary material). Under the assay conditions, the peptides gave CD spectra similar to those in Tris buffer, with the exception of H-(β^3-HLeu-β^3-HLys-β^3-HLeu)n-OH, n=5 and 6.
Antibacterial assay was performed by incubation of K 91 E. coli and peptide of different concentrations in minimal media, at pH 7.4. The peptide solution (50 μL) and K 91 E. coli culture (20 μL, grown in minimal media for 24 hr-36 hr) were mixed with 1 mL minimal media. […] The peptide dose required for 50% suppress of bacterial growth was obtained from the smooth fitted OD600 vs. log[peptide] curve.
The activity and selectivity of peptide 1 and peptide 2 were examined by antibacterial assay and hemolysis experiments. E. Coli and human erythrotytes (RBC) were used as models for bacterial cell and mammalian cell, respectively. The peptide concentration required for 50% bacterial growth suppression (IC50), and peptide concentration required for 50% RBC lysis (HD50) are listed in Table 3. […] The antibacterial activities of peptide 1 and peptide 2 are about the same except peptide 2 has slightly lower IC50. Similar trend has been observed in the previous study, that longer peptide tends to have higher activity. However, the difference in IC50 is much smaller for this series of peptide than the previously studied ones. Antibacterial peptide with good selectivity is usually represented by its low hemolysis ability. […] The HD50 is 670 μM for peptide 1 and 240 μM for peptide 2, which gives a selectivity of 111 for peptide 1 and 60 for peptide 2.

[2] = K91 E. coli, minimal media, pH 7.4 (DeGrado lab), read-out: IC50 *

SMILES	Kd [1]	induction of micF-lux (micF-lux fusion)	micF gene fusion response (micF-lux fusion)	IC50 (K91 E. coli; [2])	IC50 (K91 E. coli; Table 5, read-out: IC50)
CC(C)[C@@H](CC(N)=O)NC(=O)C[C@H](CCCCN)NC(=O)C[C@H](C)NC(=O)C[C@@H](NC(=O)C[C@H](CCCCN)NC(=O)C[C@H](C)NC(=O)C[C@@H](NC(=O)C[C@H](CCCCN)NC(=O)C[C@H](C)NC(=O)C[C@@H](NC(=O)C[C@H](CCCCN)NC(=O)C[C@H](C)NC(=O)C[C@@H](NC(=O)C[C@H](CCCCN)NC(=O)C[C@H](C)N)C(C)C)C(C)C)C(C)C)C(C)C [Peptide 2]	0.3 µM	induction	yes	4 µM	4 µM
CC(C)[C@@H](CC(N)=O)NC(=O)C[C@H](CCCCN)NC(=O)C[C@H](C)NC(=O)C[C@@H](NC(=O)C[C@H](CCCCN)NC(=O)C[C@H](C)NC(=O)C[C@@H](NC(=O)C[C@H](CCCCN)NC(=O)C[C@H](C)NC(=O)C[C@@H](NC(=O)C[C@H](CCCCN)NC(=O)C[C@H](C)N)C(C)C)C(C)C)C(C)C [Peptide 1]	1.4 µM	induction	yes	6 µM	6 µM
